Results: patent US12172983B2, “EGFR inhibitors” (Blueprint Medicines Corporation, priority 2019, dated 2024)
Like-named read-outs stand apart in the source and are kept apart here.

What was measured:
[1] = biological target: T1, EGFR (L858R T790M C797S) (Homo sapiens, UniProt P00533, C797S/L858R/T790M); assay: Biochemical EGFR inhibition assay (Caliper mobility shift), EGFR LRTMCS mutant; details: inhibitory activity against EGFR LRTMCS mutant; apparent IC50; read-out: Ext Enz LRTMCS
T1 construct: purchased SignalChem E10-122VG
In short: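 Kinase reactions at 25 °C run to 10–20% peptide phosphorylation, stopped with 35 mM EDTA. Phosphorylated product and substrate separated electrophoretically by mobility shift. Apparent IC50 from percent activity versus log compound concentration.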

[2] = tested on: phosphorylation of EGFR (Tyr1068) in NCI-H1975 cell line that harbors the EGFR L858R T790M mutations; assay: NCI-H1975 pEGFR AlphaLISA assay; type: cell-based; details: 4-5 hours incubation, read-out: Ext pEGFR H1975
In short: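 NCI-H1975 cells (EGFR L858R/T790M) seeded overnight, then treated with compound for 4-5 h at 37 °C/5% CO2. After lysis, p-EGFR (Tyr1068) quantified by AlphaLISA SureFire Ultra with acceptor then donor beads; IC50 fitted from percent inhibition versus log concentration.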

[3] = inhibition of phosphorylation of mutant EGFR in NCI-H1975 cells
[4] = Homo sapiens, NCI-H1975, inhibition of phosphorylation of mutant EGFR in NCI-H1975 cells

T1 sequence (P00533 25-1210 T790M/C797S/L858R): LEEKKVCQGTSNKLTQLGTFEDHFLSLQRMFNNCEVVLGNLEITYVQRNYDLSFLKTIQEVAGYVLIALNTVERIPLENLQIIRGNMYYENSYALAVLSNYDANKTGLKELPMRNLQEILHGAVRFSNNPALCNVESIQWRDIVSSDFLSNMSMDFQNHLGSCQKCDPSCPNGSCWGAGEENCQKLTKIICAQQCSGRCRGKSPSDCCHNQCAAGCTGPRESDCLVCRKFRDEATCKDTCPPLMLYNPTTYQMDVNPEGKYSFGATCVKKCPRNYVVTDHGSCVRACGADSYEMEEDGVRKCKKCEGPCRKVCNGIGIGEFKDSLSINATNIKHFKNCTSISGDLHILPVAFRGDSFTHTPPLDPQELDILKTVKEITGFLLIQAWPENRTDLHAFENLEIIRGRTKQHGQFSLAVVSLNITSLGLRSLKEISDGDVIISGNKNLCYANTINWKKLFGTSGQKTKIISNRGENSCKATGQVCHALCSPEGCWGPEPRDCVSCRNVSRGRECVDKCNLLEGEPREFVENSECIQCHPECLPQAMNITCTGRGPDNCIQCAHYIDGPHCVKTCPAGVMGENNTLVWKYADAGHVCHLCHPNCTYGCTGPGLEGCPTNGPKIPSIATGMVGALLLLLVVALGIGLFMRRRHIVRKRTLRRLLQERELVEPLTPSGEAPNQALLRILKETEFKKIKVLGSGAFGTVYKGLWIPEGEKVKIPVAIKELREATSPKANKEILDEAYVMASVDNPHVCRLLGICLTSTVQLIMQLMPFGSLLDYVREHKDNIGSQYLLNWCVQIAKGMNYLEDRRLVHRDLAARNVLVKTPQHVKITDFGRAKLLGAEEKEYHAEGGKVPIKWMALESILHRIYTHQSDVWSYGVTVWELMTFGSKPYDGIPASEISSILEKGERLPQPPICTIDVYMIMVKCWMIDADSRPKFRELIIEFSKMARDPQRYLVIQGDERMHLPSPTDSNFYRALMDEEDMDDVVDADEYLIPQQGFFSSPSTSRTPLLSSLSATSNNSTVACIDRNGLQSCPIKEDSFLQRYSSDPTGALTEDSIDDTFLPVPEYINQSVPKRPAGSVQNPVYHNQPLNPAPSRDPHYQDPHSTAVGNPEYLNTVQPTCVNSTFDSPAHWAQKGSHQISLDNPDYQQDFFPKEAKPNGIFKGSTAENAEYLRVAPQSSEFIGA

Structure (SMILES) | IC50 [1] [nM] | IC50 [2, 3] [nM] | IC50 [2, 4] [nM]
CC(C)c1cnc(N2CC(CS(C)(=O)=O)C2)c2cnc(Nc3ccnc(N4C[C@H]5COC[C@H]5C4)n3)cc12 [Compound 14, N-{2-[(3aR,6aS)-hexahydro-1H-furo[3,4-c]pyrrol-5-yl]pyrimidin-4-yl}-8-[3-(methanesulfonylmethyl)azetidin-1-yl]-5-(propan-2-yl)-2,7-naphthyridin-3-amine or N-{2-[(3aS,6aR)-hexahydro-1H-furo[3,4-c]pyrrol-5-yl]pyrimidin-4-yl}-8-[3-(methanesulfonylmethyl)azetidin-1-yl]-5-(propan-2-yl)-2,7-naphthyridin-3-amine] | 15.1 to 20 | 30.1 to 50 | 
CC(C)c1ccc(N2CC(CS(C)(=O)=O)C2)c2cnc(Nc3ccnc(N4CCC5(OCCO5)[C@H](F)C4)n3)cc12 (single isomer, unassigned) [Compound 181, N-{2-[(6R)-6-fluoro-1,4-dioxa-8-azaspiro[4.5]decan-8-yl]pyrimidin-4-yl}-8-[3-(methanesulfonylmethyl)azetidin-1-yl]-5-(propan-2-yl)isoquinolin-3-amine or N-{2-[(6S)-6-fluoro-1,4-dioxa-8-azaspiro[4.5]decan-8-yl]pyrimidin-4-yl}-8-[3-(methanesulfonylmethyl)azetidin-1-yl]-5-(propan-2-yl)isoquinolin-3-amine] | ≤ 15 | 10.1 to 20 | 
C[C@@H]1[C@@H](CS(C)(=O)=O)CN1c1ccc(C(F)(F)F)c2cc(Nc3ccnc(N4CC[C@@H](O)[C@@](C)(F)C4)n3)ncc12 (single isomer, unassigned) [Compound 222] | ≤ 15 |  | ≤ 10
C[C@@H]1[C@@H](CS(C)(=O)=O)CN1c1ccc(C2CC2)c2cc(Nc3ccnc(N4CC[C@@H](O)[C@@](C)(F)C4)n3)ncc12 (single isomer, unassigned) [Compound 90] | ≤ 15 |  | ≤ 10
CCS(=O)(=O)C[C@H]1CN(c2cnc(C(C)C)c3cc(Nc4ccnc(N5CC[C@@](C)(O)[C@@H](F)C5)n4)ncc23)[C@@H]1C (single isomer, unassigned) [Compound 194] | ≤ 15 |  | ≤ 10
CCS(=O)(=O)C[C@H]1CN(c2cnc(C(C)C)c3cc(Nc4ccnc(N5CC[C@](C)(O)[C@H](F)C5)n4)ncc23)[C@@H]1C (single isomer, unassigned) [Compound 195] | ≤ 15 |  | ≤ 10
CC[C@]1(F)CN(c2nccc(Nc3cc4c(C(C)C)ccc(N5CC(CS(C)(=O)=O)C5)c4cn3)n2)CC[C@H]1O (single isomer, unassigned) [Compound 115, (3S,4R)-3-ethyl-3-fluoro-1-[4-({8-[3-(methanesulfonylmethyl)azetidin-1-yl]-5-(propan-2-yl)isoquinolin-3-yl}amino)pyrimidin-2-yl]piperidin-4-ol or (3R,4S)-3-ethyl-3-fluoro-1-[4-({8-[3-(methanesulfonylmethyl)azetidin-1-yl]-5-(propan-2-yl)isoquinolin-3-yl}amino)pyrimidin-2-yl]piperidin-4-ol] | ≤ 15 |  | ≤ 10
CO[C@H]1CN(c2nccc(Nc3cc4c(C(C)C)ccc(N5C[C@H](CS(C)(=O)=O)[C@H]5C)c4cn3)n2)C[C@@H](F)[C@H]1O (racemic) [Compound 200, (3R,4S,5S)-3-fluoro-1-(4-((5-isopropyl-8-((2R,3S)-2-methyl-3-((methylsulfonyl)methyl)azetidin-1-yl)isoquinolin-3-yl)amino)pyrimidin-2-yl)-5-methoxypiperidin-4-ol and (3S,4R,5R)-3-fluoro-1-(4-((5-isopropyl-8-((2R,3S)-2-methyl-3-((methylsulfonyl)methyl)azetidin-1-yl)isoquinolin-3-yl)amino)pyrimidin-2-yl)-5-methoxypiperidin-4-ol] | 15.1 to 20 |  | ≤ 10
CC(C)c1cnc(N2C[C@H](CS(C)(=O)=O)[C@H]2C)c2cnc(Nc3ccnc(N4CC[C@@](C)(O)C(F)(F)C4)n3)cc12 (single isomer, unassigned) [Compound 215, (4R)-3,3-difluoro-1-[4-({8-[(2R,3S)-3-(methanesulfonylmethyl)-2-methylazetidin-1-yl]-5-(propan-2-yl)-2,7-naphthyridin-3-yl}amino)pyrimidin-2-yl]-4-methylpiperidin-4-ol or (4S)-3,3-difluoro-1-[4-({8-[(2R,3S)-3-(methanesulfonylmethyl)-2-methylazetidin-1-yl]-5-(propan-2-yl)-2,7-naphthyridin-3-yl}amino)pyrimidin-2-yl]-4-methylpiperidin-4-ol] | ≤ 15 |  | ≤ 10
CO[C@H]1CN(c2nccc(Nc3cc4c(C(C)C)ccc(N5C[C@H](CS(C)(=O)=O)[C@H]5C)c4cn3)n2)CC[C@@H]1O (single isomer, unassigned) [Compound 98, (3R,4R)-1-[4-({8-[(2R,3S)-3-(methanesulfonylmethyl)-2-methylazetidin-1-yl]-5-(propan-2-yl)isoquinolin-3-yl}amino)pyrimidin-2-yl]-3-methoxypiperidin-4-ol or (3S,4S)-1-[4-({8-[(2R,3S)-3-(methanesulfonylmethyl)-2-methylazetidin-1-yl]-5-(propan-2-yl)isoquinolin-3-yl}amino)pyrimidin-2-yl]-3-methoxypiperidin-4-ol] | ≤ 15 |  | 10.1 to 20
CC(C)c1ccc(N2CC(CS(C)(=O)=O)C2)c2cnc(Nc3ccnc(N4CC(C)(C)[C@H](O)C(F)(F)C4)n3)cc12 (single isomer, unassigned) [Compound 213, (4S)-3,3-difluoro-1-[4-({8-[3-(methanesulfonylmethyl)azetidin-1-yl]-5-(propan-2-yl)isoquinolin-3-yl}amino)pyrimidin-2-yl]-5,5-dimethylpiperidin-4-ol or (4R)-3,3-difluoro-1-[4-({8-[3-(methanesulfonylmethyl)azetidin-1-yl]-5-(propan-2-yl)isoquinolin-3-yl}amino)pyrimidin-2-yl]-5,5-dimethylpiperidin-4-ol] | ≤ 15 |  | ≤ 10
CC(C)c1ccc(N2C[C@H](CS(C)(=O)=O)[C@H]2C)c2cnc(Nc3ccnc(N4CC[C@H](O)[C@H](F)C4)n3)cc12 [Compound 311, (3R,4S)-3-fluoro-1-[4-({8-[(2R,3S)-3-(methanesulfonylmethyl)-2-methylazetidin-1-yl]-5-(propan-2-yl)isoquinolin-3-yl}amino)pyrimidin-2-yl]piperidin-4-ol] | ≤ 15 |  | ≤ 10
CC(C)c1cnc(N2C[C@H](CS(C)(=O)=O)[C@H]2C)c2cnc(Nc3ccnc(N4CC[C@@H](OCC(C)(C)O)[C@@H](F)C4)n3)cc12 [Compound 260, 1-{[(3S,4R)-3-fluoro-1-[4-({8-[(2R,3S)-3-(methanesulfonylmethyl)-2-methylazetidin-1-yl]-5-(propan-2-yl)-2,7-naphthyridin-3-yl}amino)pyrimidin-2-yl]piperidin-4-yl]oxy}-2-methylpropan-2-ol] | ≤ 15 |  | ≤ 10
CO[C@H]1CCN(c2nccc(Nc3cc4c(C(C)C)ccc(N5C[C@H](CS(C)(=O)=O)[C@H]5C)c4cn3)n2)C[C@H]1C#N (single isomer, unassigned) [Compound 164, (3S,4S)-1-[4-({8-[(2R,3S)-3-(methanesulfonylmethyl)-2-methylazetidin-1-yl]-5-(propan-2-yl)isoquinolin-3-yl}amino)pyrimidin-2-yl]-4-methoxypiperidine-3-carbonitrile or (3R,4R)-1-[4-({8-[(2R,3S)-3-(methanesulfonylmethyl)-2-methylazetidin-1-yl]-5-(propan-2-yl)isoquinolin-3-yl}amino)pyrimidin-2-yl]-4-methoxypiperidine-3-carbonitrile] | 15.1 to 20 | ≤ 10 | 
CCS(=N)(=O)CC1CN(c2ccc(C(C)C)c3cc(Nc4ccnc(N5CCC(OC)C(F)C5)n4)ncc23)C1 (single isomer, unassigned) [Compound 275, (S)-ethyl({1-[3-({2-[(3R,4S)-3-fluoro-4-methoxypiperidin-1-yl]pyrimidin-4-yl}amino)-5-(propan-2-yl)isoquinolin-8-yl]azetidin-3-yl}methyl)imino-λ^6-sulfanone or (R)-ethyl({1-[3-({2-[(3R,4S)-3-fluoro-4-methoxypiperidin-1-yl]pyrimidin-4-yl}amino)-5-(propan-2-yl)isoquinolin-8-yl]azetidin-3-yl}methyl)imino-λ^6-sulfanone] | 15.1 to 20 | 30.1 to 50 | 
CNCCO[C@H]1CCN(c2nccc(Nc3cc4c(C(C)C)ccc(N5C[C@H](CS(C)(=O)=O)[C@H]5C)c4cn3)n2)C[C@H]1F [Compound 297, N-{2-[(3R,4S)-3-fluoro-4-[2-(methylamino)ethoxy]piperidin-1-yl]pyrimidin-4-yl}-8-[(2R,3S)-3-(methanesulfonylmethyl)-2-methylazetidin-1-yl]-5-(propan-2-yl)isoquinolin-3-amine] | ≤ 15 |  | ≤ 10
CC(C)c1ccc(N2CC(CS(=O)(=O)C3CNC3)C2)c2cnc(Nc3ccnc(N4CC[C@@H](O)[C@@](C)(F)C4)n3)cc12 (single isomer, unassigned) [Compound 223] | 20.1 to 30 |  | 30.1 to 50
CC(C)c1ccc(N2C[C@H](CS(C)(=O)=O)[C@H]2C)c2cnc(Nc3ccnc(N4CCC(OCCN)CC4)n3)cc12 [Compound 168, N-{2-[4-(2-aminoethoxy)piperidin-1-yl]pyrimidin-4-yl}-8-[(2R,3S)-3-(methanesulfonylmethyl)-2-methylazetidin-1-yl]-5-(propan-2-yl)isoquinolin-3-amine] | ≤ 15 |  | 10.1 to 20
